Holding throughout (format): cell-based
For assay [1], the system named is V. harveyi. In words: Biofilm formation on peggs, Calgary method. The conditions noted are these: for Effect on V. harveyi biofilm: in words. On the procedure: (§1) Biofilm formation was measured in static cultures in wells of microtiter plates for S. epidermidis, or on “peggs” according to the Calgary method (The Calgary biofilm devices: New technology for rapid determination of antibiotic susceptibilities of bacterial biofilms. Ceri et al. J Clin Microbiol 1999:37:1771-1776) for V. harveyi. In both cases the safranin staining method was applied and optical density was measured at 530 nm for quantification of biofilm mass.

Assay [2] deals with V. harveyi. The assay is described as follows: Planktonic growth in Low Binding Plates, OD 600 nm. The settings on record: for V. harveyi planktonic bacteria reduction: 100 μM; for Effect on V. harveyi planktonic growth: in words. The procedure:
(§2) Planktonic growth was determined in “Low Binding Plates” in which the bacteria form minimal amounts of biofilm The quantity is determined by optical density measurements at 600 nm.

Assay [3] deals with S. epidermidis. In words: Biofilm formation in static cultures in wells of microtiter plates. On the procedure:
as §1

For assay [4], the system named is S. epidermidis. The assay is described as follows: Planktonic growth in Low Binding Plates, OD 600 nm. On the procedure:
as §2

Assay [5] deals with S. epidermidis. The assay is described as follows: Static biofilm model on coated glass vials. The settings on record: incubation time 5 h, coating on glass vial. On the procedure:
The materials of Example 3 were tested in a static biofilm model as follows.
Triplicate samples of a coating composition were applied to a glass vial in accordance with Table 2 set out below where each vial is given a number. Vials 1 to 12 are each loaded with 13 mg of the indicated material, followed by the addition of 1.0 mL dichloromethane. The dichloromethane was slowly evaporated under atmospheric pressure to leave a coating on the internal walls of the receptacles. Vials 13 to 18 were each loaded by adding 10 mg of the indicated material pre-dissolved in 10 mL dichloromethane. These vials were heated in an oven at 125° C. for 24 hours. To remove any residues of the dichloromethane solvent, all vials were dried at high vacuum (0.5 mmHg) for 2 hours at room temperature.
The biofilm was assessed as described in Example 2.
It is possible in the example of the copolymer of C and D that bacteria are killed in addition to the inhibition of biofilm formation. Similar results were obtained in a static biofilm model where S. epidermis bacteria were incubated over a time period of 5 hours.

Assay [6] has as its system S. epidermidis. In words: Shaking biofilm model (200 rpm), safranine staining. The settings on record: Staphylococcus epidermidis, read-out: Shaking biofilm model % Remaining. The procedure: (§3) According to the static biofilm model, a given thiophenone 200 μmol/L was dissolved in 500 μl absolute ethanol and applied to wells of a standard 24 well microtiter plate. The ethanol was evaporated from the wells in a laminar air sterile work bench at room temperature so as to leave a coating of the thiophenone in the well. A sample of bacteria was then added to the well and incubated for a given period of time. After incubation, the percentage of bacteria remaining was assessed by safranine staining of the biofilm. Bound safranine was released by acetic acid and optical density was measured in Synergy HT Multi-Detection Microplate Reader and compared to a control.
According to the shaking biofilm model, the microtiter plates were shaken (200 rpm) in a Minitron Incubator Shaker during biofilm formation.

For assay [7], the system named is S. epidermidis. The assay is described as follows: Static biofilm model, safranine staining. The conditions noted are these: 6 h incubation, thiophenone 200 μmol/L coating. On the procedure:
as §3

The mark [8] stands for this setting: S. epidermidis, 20 h incubation.

SMILES strings stand for the structures. Like-named read-outs stand apart in the source and are kept apart here.

As to `O=C(O)CCC(=O)OCC1=C/C(=C/Br)SC1=O`, the results for the “V. harveyi biofilm reduction” value with V. harveyi [1] (5 μM), in the assay with V. harveyi [1] (50 μM) and in the assay with V. harveyi [1] (100 μM) were 17%, 70% and 85%, respectively. In addition, the “V. harveyi planktonic bacteria reduction” value in the assay on V. harveyi [2] worked out at 18%.
For `O=C1C=C/C(=C/I)S1`, the “V. harveyi biofilm reduction” value in the assay with V. harveyi [1] (5 μM) was 46%; in the assay on V. harveyi [1] (10 μM), 80%; in the assay on V. harveyi [1] (15 μM), 95%. The “S. epidermis biofilm reduction” value with S. epidermidis [3] (50 μM) came to 50%; with S. epidermidis [3] (100 μM), 64%. The “S. epidermis planktonic bacterial growth reduction” value in the assay with S. epidermidis [4] (50 μM) is 50%; with S. epidermidis [4] (100 μM) it was 63%.
`N#CS/C=C1/C=CC(=O)S1`: the “V. harveyi biofilm reduction” value in the assay on V. harveyi [1] (25 μM) turned out to be 90%. Further, the “S. epidermis planktonic growth reduction” value with S. epidermidis [4] (concentrations from 25 μM) is listed as 70%. Moreover, the “V. harveyi planktonic reduction” value in the assay with V. harveyi [2] (25 μM) amounted to 50%.
For the compound `CCN(/C=C1/C=CC(=O)S1)CC`, the “Effect on V. harveyi biofilm” value with V. harveyi [1] is reported as “No effect”. In addition, the “Effect on V. harveyi planktonic growth” value in the assay with V. harveyi [2] is given as “No effect”.
Regarding `O=C1C=C/C(=C/Oc2ccc([N+](=O)[O-])cc2)S1`, the “Effect on S. epidermis biofilm” value in the assay with S. epidermidis [3] (in words) is given as “No effect”. Moreover, in the assay on S. epidermidis [4] (in words), the “Effect on S. epidermis planktonic growth” value was “No effect”.
In the case of `COc1ccc(C2CSC(=O)C2)s1` (stereo not drawn), the “Effect on V. harveyi biofilm” value in the assay on V. harveyi [1] is “No effect”. The “Effect on V. harveyi planktonic growth” value in the assay with V. harveyi [2] is “No effect”.
On to `O=C1S/C(=C\Br)C=C1c1cccs1` [(Z)-5-(bromomethylene)-3-(thiophen-2-yl)thiophen-2(5H)-one], for which the “V. harveyi planktonic bacteria reduction” value with V. harveyi [2] is given as 30%.
With `CCO[Si](CCCNC(=O)OCc1ccccc1)(OCC)OCC` [Benzyl 3-(triethoxysilyl)propylcarbamate, reference compound], the “Static biofilm model % Remaining” value in the assay on S. epidermidis [5] is 100%.
Take `COc1ccc(CC2(CO)C=CC(=O)S2)s1` (stereo not drawn) [Thi401, 5-(hydroxymethyl)-5-((5-methoxythiophen-2-yl)methyl)thiophen-2(5H)-one]: the activity at 200 µM was 80% with S. epidermidis [6] (S. epidermidis, 6 h incubation) and 94% with S. epidermidis [6] (setting [8]). In addition, in the assay on S. epidermidis [7], the “Static biofilm model % Remaining” value was determined as 51%.
Consider `O=C1C=C/C(=C\Br)S1` [Thio102, (E)-5-(bromomethylene) thiophen-2(5H)-one], for which the activity at 200 µM in the assay with S. epidermidis [6] (S. epidermidis, 6 h incubation) turned out to be 91%; in the assay on S. epidermidis [6] (setting [8]), 103%. Moreover, the “Static biofilm model % Remaining” value in the assay on S. epidermidis [7] is 95%.
As to `O=C1C=C/C(=C/Cl)S1` [Thio103, (Z)-5-(chloromethylene) thiophen-2(5H)-one], the activity at 200 µM was 92% in the assay on S. epidermidis [6] (6 h) and 96% in the assay on S. epidermidis [6] (20 h). Moreover, the “Static biofilm model % Remaining” value in the assay on S. epidermidis [7] was 32%.
For `CC(=O)O/C=C1/C=CC(=O)S1` [Thio104, (Z)-(5-oxothiophen-2(5H)-ylidene)methyl acetate] the same measures were 106%, 103% and 34%.
Take `O=C1S/C(=C\Br)C=C1Br` [Thio105, (Z)-3-bromo-5-(bromomethylene)thiophen-2(5H)-one]: the activity at 200 µM with S. epidermidis [6] (S. epidermidis, 6 h incubation) amounted to 20%; with S. epidermidis [6] (setting [8]), 18%.
For the compound `O=C1C=CC(=C(Br)Br)S1` [Thio106, 5-(dibromomethylene)thiophen-2(5H)-one], the activity at 200 µM came to 11% with S. epidermidis [6] (S. epidermidis, 6 h incubation) and 27% in the assay on S. epidermidis [6] (setting [8]).
Taken in the same sequence, the figures for `O=C1C=C/C(=C/C(Br)Br)S1` [Thio107, (Z)-5-(2,2-dibromoethylidene) thiophen-2(5H)-one] were 77% and 93%.
With `O=C1SC(=C(Br)Br)C=C1Br` [Thio108, 3-bromo-5-(dibromomethylene)thiophen-2(5H)-one], the activity at 200 µM stood at 1% with S. epidermidis [6] (S. epidermidis, 6 h incubation) and 9% in the assay with S. epidermidis [6] (setting [8]).
For `O=C1C=C/C(=C/c2ccccc2)S1` [Thio109, (Z)-5-benzylidenethiophen-2(5H)-one] the same measures were 98% and 107%.
For `O=C1S/C(=C\c2ccccc2)C=C1Br` [Thio110, (Z)-5-benzylidene-3-bromothiophen-2(5H)-one] the same measures were 30% and 27%.
Taken in the same sequence, the figures for `O=C1C=C/C(=C(\Br)c2ccccc2)S1` [Thio111, (E)-5-(bromo(phenyl)methylene) thiophen-2-(5H)-one] were 63% and 50%.
Turning to `O=C1C=C/C(=C(/Br)c2ccccc2)S1` [Thio112, (Z)-5-(bromo(phenyl)methylene) thiophen-2(5H)-one], the activity at 200 µM came to 63% in the assay on S. epidermidis [6] (S. epidermidis, 6 h incubation) and 59% in the assay with S. epidermidis [6] (setting [8]).
For the compound `COc1ccc(C=O)s1` [Thio201, 5-methoxythiophene-2-carbaldehyde], the activity at 200 µM worked out at 81% with S. epidermidis [6] (S. epidermidis, 6 h incubation) and 101% in the assay on S. epidermidis [6] (setting [8]). Moreover, the “Static biofilm model % Remaining” value in the assay with S. epidermidis [7] was 56%.
Consider `COc1ccc(C=C(Br)Br)s1` [Thio202, 2-(2,2-dibromovinyl)-5-methoxythiophene], for which the activity at 200 µM was found to be 94% with S. epidermidis [6] (S. epidermidis, 6 h incubation) and 103% in the assay on S. epidermidis [6] (setting [8]).
For `O=C1C=C/C(=C/c2cccs2)S1` [Thio301, (Z)-5-(thiophen-2-ylmethylene) thiophen-2(5H)-one] the same measures were 80% and 98%.
`O=C1C=C/C(=C/c2ccc(Br)s2)S1` [Thio302, (Z)-5-((5-bromothiophen-2-yl)methylene)thiophen-2(5H)-one]: the activity at 200 µM in the assay with S. epidermidis [6] (S. epidermidis, 6 h incubation) stood at 98%; with S. epidermidis [6] (setting [8]), 101%.
Taken in the same sequence, the figures for `O=Cc1ccc(/C=C2/C=CC(=O)S2)s1` [Thio303, (Z)-5-((5-oxothiophen-2(5H)-ylidene)methyl)thiophene-2-carbaldehyde] were 95% and 91%.
Take `COc1ccc(/C=C2/C=CC(=O)S2)s1` [Thio304, (Z)-5-((5-methoxythiophen-2-yl)methylene)thiophen-2(5H)-one]: the activity at 200 µM amounted to 72% in the assay with S. epidermidis [6] (S. epidermidis, 6 h incubation) and 94% in the assay with S. epidermidis [6] (setting [8]).
For `COc1sc(/C=C2/C=CC(=O)S2)c(Br)c1Br` [Thio305, (Z)-5-((3,4-dibromo-5-methoxythiophen-2-yl)methylene)thiophen-2(5H)-one] the same measures were 66% and 101%.
For the compound `O=C1C=C/C(=C/c2ccc(-c3cccs3)s2)S1` [Thio306, (Z)-5-(2,2′-bithiophen-5-ylmethylene) thiophen-2(5H)-one], the “Static biofilm model % Remaining” value in the assay with S. epidermidis [7] came to 67%.

For the origin of these results see patent US20110250254A1, “ANTIMICROBIAL COMPOSITIONS AND USES” (priority 2008, published 2011).
